Laboratory results: the supplement of paper PMC10307832

What was measured:
Test in all cases: relative viability (nuclei count vs DMSO), 5 days (fraction); higher = more cells survive
Tosedostat + Trametinib = compound: CC(C)C[C@@H](C(=O)N[C@H](C(=O)OC1CCCC1)c1ccccc1)[C@H](O)C(=O)NO [Tosedostat] + CC(=O)Nc1cccc(-n2c(=O)n(C3CC3)c(=O)c3c(Nc4ccc(I)cc4F)n(C)c(=O)c(C)c32)c1 [Trametinib] (partner 0.02 µM)
Procedure, shortened: (§1)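 Lung cancer cell lines, seeded in 1536-well plates, were treated the following day by pin tool with a single drug or with five library-drug doses (not always all listed) in √10 steps on top of a fixed anchor-drug dose. Cells were fixed and nuclei stained in one step after 5 days, and nuclei were counted. Relative viability is the nuclei count for treated wells divided by that for vehicle wells, reported as medians of duplicate plates.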

Tosedostat + Bortezomib = compound: CC(C)C[C@@H](C(=O)N[C@H](C(=O)OC1CCCC1)c1ccccc1)[C@H](O)C(=O)NO [Tosedostat] + CC(C)C[C@H](NC(=O)[C@H](Cc1ccccc1)NC(=O)c1cnccn1)B(O)O [Bortezomib] (partner 0.002 µM)
Procedure, shortened: as §1

[1] = compound: CC1=NN=C(O1)C2=NN=C(C=C2)N3CCC(CC3)OC4=C(C=CC(=C4)F)Cl + CC1(C)CCC(c2ccc(Cl)cc2)=C(CN2CCN(c3ccc(C(=O)NS(=O)(=O)c4ccc(N[C@H](CCN5CCOCC5)CSc5ccccc5)c(S(=O)(=O)C(F)(F)F)c4)cc3)CC2)C1 [Navitoclax] (partner 0.5 µM)
Procedure, shortened: as §1

[2] = compound: CC1=NN=C(O1)C2=NN=C(C=C2)N3CCC(CC3)OC4=C(C=CC(=C4)F)Cl + Cc1cc(Nc2cc(N3CCN(C)CC3)nc(Sc3ccc(NC(=O)C4CC4)cc3)n2)n[nH]1 [Tozasertib] (partner 0.1 µM)
Procedure, shortened: as §1

UMC-11 showed a relative viability (Tosedostat + Trametinib; first compound 0.02 µM) of 0.863, a relative viability (Tosedostat + Trametinib; first compound 0.06325 µM) of 0.681 and a relative viability (Tosedostat + Trametinib; first compound 0.2 µM) of 0.663. It also gave a relative viability (Tosedostat + Trametinib; first compound 0.6325 µM) of 0.855, a relative viability (Tosedostat + Trametinib; first compound 2 µM) of 0.664 and a relative viability (Tosedostat + Bortezomib; first compound 0.02 µM) of 0.689. The relative viability (Tosedostat + Bortezomib; first compound 0.06325 µM) was 0.523, the relative viability (Tosedostat + Bortezomib; first compound 0.2 µM) was 0.752 and the relative viability (Tosedostat + Bortezomib; first compound 0.6325 µM) was 0.663. The relative viability (Tosedostat + Bortezomib; first compound 2 µM) was 0.81, the relative viability ([1]; first compound 0.253 µM) was 0.287 and the relative viability ([1]; first compound 0.8 µM) was 0.344. For the same cell line, the relative viability ([1]; first compound 2.53 µM) was 0.315, the relative viability ([1]; first compound 8 µM) was 0.317 and the relative viability ([2]; first compound 0.253 µM) was 0.181. It also gave a relative viability ([2]; first compound 0.8 µM) of 0.184, a relative viability ([2]; first compound 2.53 µM) of 0.192 and a relative viability ([2]; first compound 8 µM) of 0.169.
